SMILES strings stand for the structures.

One experiment deals with T1, FLT3 (Homo sapiens, UniProt P36888).
T1 sequence (P36888 27-993): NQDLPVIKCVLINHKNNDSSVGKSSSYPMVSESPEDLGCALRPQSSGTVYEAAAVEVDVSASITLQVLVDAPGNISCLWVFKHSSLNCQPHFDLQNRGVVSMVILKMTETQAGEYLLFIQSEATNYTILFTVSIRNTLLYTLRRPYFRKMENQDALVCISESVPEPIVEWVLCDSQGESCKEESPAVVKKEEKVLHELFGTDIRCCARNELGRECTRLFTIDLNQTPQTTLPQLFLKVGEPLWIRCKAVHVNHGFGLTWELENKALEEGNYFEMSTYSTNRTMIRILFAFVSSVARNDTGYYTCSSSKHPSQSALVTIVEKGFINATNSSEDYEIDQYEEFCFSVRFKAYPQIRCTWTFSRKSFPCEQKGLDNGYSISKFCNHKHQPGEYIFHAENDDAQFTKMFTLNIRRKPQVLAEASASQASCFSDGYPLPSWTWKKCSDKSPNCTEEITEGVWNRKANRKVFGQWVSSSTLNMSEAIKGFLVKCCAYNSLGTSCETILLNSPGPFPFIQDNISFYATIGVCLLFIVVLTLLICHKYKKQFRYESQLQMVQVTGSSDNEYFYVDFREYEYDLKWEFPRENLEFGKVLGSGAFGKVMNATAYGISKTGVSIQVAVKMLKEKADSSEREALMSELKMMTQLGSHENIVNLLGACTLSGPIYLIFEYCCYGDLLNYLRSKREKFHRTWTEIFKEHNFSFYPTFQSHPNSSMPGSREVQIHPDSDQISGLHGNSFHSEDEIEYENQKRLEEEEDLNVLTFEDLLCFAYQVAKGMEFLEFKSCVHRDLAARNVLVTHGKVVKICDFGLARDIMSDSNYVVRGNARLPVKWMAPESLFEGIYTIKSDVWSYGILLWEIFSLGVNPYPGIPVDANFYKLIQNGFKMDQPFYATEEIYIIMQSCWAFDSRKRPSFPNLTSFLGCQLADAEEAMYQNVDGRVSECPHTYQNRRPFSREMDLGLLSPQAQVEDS
In words: FLT3 LanthaScreen assay. In kind it is biochemical. The note with it: Table 4. The procedure: (§1) FLT3/FLT3-ITD LanthaScreen Assays
(§2) Assays were performed in a 10 μl-volume in 384-well polypropylene microplates (Perkin Elmer Proxiplate, cat. No. 6059480) at ambient temperature. Optimized 1× assay buffer was 50 mM Hepes pH 7.5, 2 mM DTT, 0.01% Tween, 0.01% BSA, 10 mM MgCl2. For compound screening FLT3 (final concentration, f.c.=[…]) or FLT3-ITD (f.c.=[…]) was added using a Multidrop Combi (ThermoFisher Scientific, Waltham, MA) and preincubated for 10 min. Reactions were started by adding fluorescein-poly GT (f.c.=200 nM) and ATP (f.c.=57 μM) substrates. Reactions proceeded for 40 minutes. The reactions were stopped with a detection mixture of EDTA (f.c.=20 mM) and terbium-conjugated anti-phoso tyrosine antibody pY20 (f.c.=2 nM). The plates were sealed and read on an Envision (PerkinElmer, Waltham, MA) using 340 nm excitation and emission reads at 495 and 520 nM.
In general terms: In TR-FRET formats the signal depends on donor and acceptor labels being close together.

The target in a further experiment is METTL3/METTL14 (Homo sapiens, UniProt Q86U44). Put plainly: METTL3-14 standard enzyme assay (3H-SAM flashplate). The following applies: Table 4; METTL3 biochemical assay. The essentials:
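Radiometric methyltransferase read-out: after quenching with excess unlabelled SAM (15 μM), biotinylated RNA was captured on streptavidin flashplates (2 h, 25° C) and counted. Reactions contained 2.5 nM enzyme (5 min preincubation), 100 nM RNA and 100 nM 3H-SAM, ran 30 min in HEPES pH 7.5 buffer with KCl, MgCl2, DTT.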

Another experiment addresses T2, FLT3-ITD (Homo sapiens, UniProt P36888).
T2 sequence (P36888 1-993): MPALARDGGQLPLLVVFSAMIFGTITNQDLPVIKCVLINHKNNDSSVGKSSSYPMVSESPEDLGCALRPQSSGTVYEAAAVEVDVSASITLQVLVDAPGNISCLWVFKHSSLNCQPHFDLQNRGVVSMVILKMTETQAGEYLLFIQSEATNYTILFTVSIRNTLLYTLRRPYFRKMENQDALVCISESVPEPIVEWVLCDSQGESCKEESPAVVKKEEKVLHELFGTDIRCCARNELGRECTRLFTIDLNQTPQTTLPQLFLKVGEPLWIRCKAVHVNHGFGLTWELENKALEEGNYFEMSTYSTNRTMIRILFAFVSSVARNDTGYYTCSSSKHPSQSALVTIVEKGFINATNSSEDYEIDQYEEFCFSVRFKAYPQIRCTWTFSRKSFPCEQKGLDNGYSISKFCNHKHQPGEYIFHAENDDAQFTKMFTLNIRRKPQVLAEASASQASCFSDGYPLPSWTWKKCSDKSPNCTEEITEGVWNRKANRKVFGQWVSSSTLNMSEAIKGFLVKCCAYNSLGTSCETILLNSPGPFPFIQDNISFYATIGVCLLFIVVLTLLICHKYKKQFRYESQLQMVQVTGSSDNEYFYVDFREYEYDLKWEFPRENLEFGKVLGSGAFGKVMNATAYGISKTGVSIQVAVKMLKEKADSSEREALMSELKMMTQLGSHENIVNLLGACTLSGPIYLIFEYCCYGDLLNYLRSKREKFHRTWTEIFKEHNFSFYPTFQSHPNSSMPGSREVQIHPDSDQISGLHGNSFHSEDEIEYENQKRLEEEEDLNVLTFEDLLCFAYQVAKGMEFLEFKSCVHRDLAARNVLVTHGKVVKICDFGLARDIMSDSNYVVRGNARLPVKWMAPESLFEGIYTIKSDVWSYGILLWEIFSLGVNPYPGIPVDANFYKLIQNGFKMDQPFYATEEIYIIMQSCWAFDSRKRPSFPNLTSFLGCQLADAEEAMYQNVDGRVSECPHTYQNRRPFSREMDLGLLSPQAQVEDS
Put plainly: FLT3-ITD LanthaScreen assay. In kind it is biochemical. The note with it: Table 4. Here is the method:
as §1, §2

The target in another experiment is PRMT5-MEP50 (Homo sapiens, UniProt O14744). In words: PRMT5 assay (3H-SAM flashplate). The following applies: Table 4; PRMT5 biochemical assay. Summed up:
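Radiometric methyl-transfer read-out: 3H-methyl transferred to a 3′-biotinylated, acetylated H4 peptide substrate (100 nM) from 3H-SAM (250 nM), captured on streptavidin scintillation plates. Enzyme complex 2.5 nM, pH 8.0 Tris buffer with DTT and Tween, compound preincubation 5 min, 60 min reaction stopped with excess unlabeled SAM.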

Chain of PRMT5-MEP50 (O14744 whole entry): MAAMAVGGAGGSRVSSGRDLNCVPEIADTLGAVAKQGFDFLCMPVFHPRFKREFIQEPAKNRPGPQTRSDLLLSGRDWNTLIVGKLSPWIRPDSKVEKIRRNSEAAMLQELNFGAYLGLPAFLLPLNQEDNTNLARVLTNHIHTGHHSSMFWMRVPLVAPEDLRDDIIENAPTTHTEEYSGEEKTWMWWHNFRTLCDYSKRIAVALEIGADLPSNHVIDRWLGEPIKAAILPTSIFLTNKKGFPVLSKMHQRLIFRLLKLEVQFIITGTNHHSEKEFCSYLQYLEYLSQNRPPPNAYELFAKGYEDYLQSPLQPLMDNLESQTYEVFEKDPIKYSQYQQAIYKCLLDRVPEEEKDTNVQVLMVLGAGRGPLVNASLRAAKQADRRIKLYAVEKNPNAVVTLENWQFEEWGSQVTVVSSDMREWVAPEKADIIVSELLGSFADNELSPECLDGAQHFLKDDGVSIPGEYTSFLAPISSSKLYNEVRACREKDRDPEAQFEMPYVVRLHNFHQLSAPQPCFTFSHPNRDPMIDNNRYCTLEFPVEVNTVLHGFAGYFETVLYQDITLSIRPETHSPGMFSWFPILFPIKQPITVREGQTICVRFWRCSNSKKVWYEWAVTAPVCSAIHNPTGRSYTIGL
Chain of PRMT5-MEP50 (Q9BQA1 whole entry partner): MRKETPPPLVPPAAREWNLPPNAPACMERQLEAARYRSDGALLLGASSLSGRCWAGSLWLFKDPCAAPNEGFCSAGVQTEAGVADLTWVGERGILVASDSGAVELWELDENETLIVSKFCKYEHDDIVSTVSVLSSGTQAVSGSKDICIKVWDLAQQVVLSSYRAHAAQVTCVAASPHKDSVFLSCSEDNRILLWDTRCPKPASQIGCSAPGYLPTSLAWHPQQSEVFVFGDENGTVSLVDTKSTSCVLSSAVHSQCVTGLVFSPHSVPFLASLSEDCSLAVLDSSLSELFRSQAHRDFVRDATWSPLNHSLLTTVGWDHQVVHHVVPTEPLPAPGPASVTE
Chain of METTL3/METTL14 (Q86U44 whole entry, species assumed): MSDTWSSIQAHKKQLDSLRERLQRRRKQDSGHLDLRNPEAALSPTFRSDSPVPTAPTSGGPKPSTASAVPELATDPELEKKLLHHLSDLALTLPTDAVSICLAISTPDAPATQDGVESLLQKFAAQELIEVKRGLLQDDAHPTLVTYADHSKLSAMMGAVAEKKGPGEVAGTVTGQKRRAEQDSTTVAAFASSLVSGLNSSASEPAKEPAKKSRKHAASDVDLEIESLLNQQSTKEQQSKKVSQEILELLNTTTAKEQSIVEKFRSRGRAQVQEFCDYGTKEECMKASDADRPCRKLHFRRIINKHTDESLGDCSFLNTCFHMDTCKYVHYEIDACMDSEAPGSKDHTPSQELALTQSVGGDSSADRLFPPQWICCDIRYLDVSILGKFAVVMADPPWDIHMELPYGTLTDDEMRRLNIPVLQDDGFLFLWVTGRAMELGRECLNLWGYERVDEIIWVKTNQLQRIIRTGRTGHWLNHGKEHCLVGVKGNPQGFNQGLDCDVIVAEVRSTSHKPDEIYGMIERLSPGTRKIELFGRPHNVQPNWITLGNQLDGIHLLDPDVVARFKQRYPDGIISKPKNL
Chain of METTL3/METTL14 (Q9HCE5 whole entry partner, species assumed): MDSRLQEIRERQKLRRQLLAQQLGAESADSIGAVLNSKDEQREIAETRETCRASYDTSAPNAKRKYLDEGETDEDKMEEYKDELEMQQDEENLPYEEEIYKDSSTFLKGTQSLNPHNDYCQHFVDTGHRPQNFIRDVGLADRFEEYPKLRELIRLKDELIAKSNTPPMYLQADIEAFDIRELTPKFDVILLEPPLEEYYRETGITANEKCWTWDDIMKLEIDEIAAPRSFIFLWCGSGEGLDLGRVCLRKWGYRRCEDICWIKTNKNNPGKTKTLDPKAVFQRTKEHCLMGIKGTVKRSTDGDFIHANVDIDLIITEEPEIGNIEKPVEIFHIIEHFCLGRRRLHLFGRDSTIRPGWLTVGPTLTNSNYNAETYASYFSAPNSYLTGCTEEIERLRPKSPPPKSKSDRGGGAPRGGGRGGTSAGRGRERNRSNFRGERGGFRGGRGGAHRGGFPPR

Turning to `CN1[C@@H]2CC[C@H]1C[C@H](NC(=O)[C@H]1O[C@@H](n3cc(-c4ccn(C)n4)c4c(N)ncnc43)[C@H](O)[C@@H]1O)C2` [Compound I-205], the IC50 (in general, the concentration that gives 50% inhibition) was at least 1000 nM at FLT3, 100 to 1000 nM on METTL3/METTL14, at least 1000 nM against FLT3-ITD and 100 to 1000 nM against PRMT5-MEP50.
With `CN1CCC(NC(=O)[C@H]2O[C@@H](n3cc(C4CCCC4)c4c(N)ncnc43)[C@H](O)[C@@H]2O)CC1` [Compound I-56, (2S,3S,4R,5R)-5-(4-amino-5-cyclopentyl-7H-pyrrolo[2,3-d]pyrimidin-7-yl)-3,4-dihydroxy-N-(1-methylpiperidin-4-yl)tetrahydrofuran-2-carboxamide], the IC50 against FLT3 is at least 1000 nM; at METTL3/METTL14 it was 100 to 1000 nM; on FLT3-ITD it was at least 1000 nM; at PRMT5-MEP50, 100 to 1000 nM.
For the compound `CC1CC(NC(=O)[C@H]2O[C@@H](n3cc(-c4ccn(C)n4)c4c(N)ncnc43)[C@H](O)[C@@H]2O)CCN1` (stereo in doubt) [Compound I-211], the IC50 against FLT3 was at least 1000 nM; on METTL3/METTL14, 100 to 1000 nM; against FLT3-ITD it was at least 1000 nM; against PRMT5-MEP50, 100 to 1000 nM.
On to `Cn1ccc(-c2cn([C@@H]3O[C@H](C(=O)NC4CCc5cnc(N)nc5C4)[C@@H](O)[C@H]3O)c3ncnc(N)c23)n1` (some centres unmarked) [Compound I-188], for which the IC50 at FLT3 is at least 1000 nM; at METTL3/METTL14, 100 to 1000 nM; at FLT3-ITD, at least 1000 nM; on PRMT5-MEP50, 100 to 1000 nM.
For the compound `CN1CCC(N(CCOCCO)C(=O)[C@H]2O[C@@H](n3cc(-c4ccn(C)n4)c4c(N)ncnc43)[C@H](O)[C@@H]2O)CC1` [Compound I-177], the IC50 was at least 1000 nM on FLT3, at least 1000 nM on METTL3/METTL14, at least 1000 nM against FLT3-ITD and 10 to 100 nM against PRMT5-MEP50.
Regarding `Cn1ccc(-c2cn([C@@H]3O[C@H](C(=O)N4CCCC(NS(C)(=O)=O)C4)[C@@H](O)[C@H]3O)c3ncnc(N)c23)n1` (stereo in doubt) [Compound I-185], the IC50 is at least 1000 nM at FLT3, at least 1000 nM at METTL3/METTL14, at least 1000 nM against FLT3-ITD and 100 to 1000 nM against PRMT5-MEP50.
On to `Cn1ccc(-c2cn([C@@H]3O[C@H](C(=O)NC4CCNC(C)(C)C4)[C@@H](O)[C@H]3O)c3ncnc(N)c23)n1` (some centres unmarked) [Compound I-189], for which the IC50 at FLT3 was at least 1000 nM; on METTL3/METTL14, 100 to 1000 nM; against FLT3-ITD it was at least 1000 nM; against PRMT5-MEP50, 10 to 100 nM.
Turning to `Cn1ccc(-c2cn([C@@H]3O[C@H](C(=O)NC4CCN(CCO)CC4)[C@@H](O)[C@H]3O)c3ncnc(N)c23)n1` [Compound I-178], the IC50 was at least 1000 nM against FLT3, 100 to 1000 nM against METTL3/METTL14, at least 1000 nM on FLT3-ITD and 10 to 100 nM against PRMT5-MEP50.
On to `CN1CC[C@@H](NC(=O)[C@H]2O[C@@H](n3cc(-c4ccn(C)n4)c4c(N)ncnc43)[C@H](O)[C@@H]2O)C1` [Compound I-184], for which the IC50 at FLT3 is at least 1000 nM; against METTL3/METTL14, 100 to 1000 nM; at FLT3-ITD, at least 1000 nM; against PRMT5-MEP50, 10 to 100 nM.
For the compound `Cn1ccc(-c2cn([C@@H]3O[C@H](C(N)=O)[C@@H](O)[C@H]3O)c3ncnc(N)c23)n1` [Compound I-54], the IC50 against FLT3 is at least 1000 nM; against METTL3/METTL14, at least 1000 nM; against FLT3-ITD, at least 1000 nM; against PRMT5-MEP50, 100 to 1000 nM.
In the case of `CN1CCC(N(CCCO)C(=O)[C@H]2O[C@@H](n3cc(-c4ccn(C)n4)c4c(N)ncnc43)[C@H](O)[C@@H]2O)CC1` [Compound I-145], the IC50 at FLT3 is at least 1000 nM; against METTL3/METTL14, 100 to 1000 nM; at FLT3-ITD, at least 1000 nM; against PRMT5-MEP50, under 10 nM.
For the compound `Cn1ccc(-c2cn([C@@H]3O[C@H](C(=O)N[C@@H]4CCCNC4)[C@@H](O)[C@H]3O)c3ncnc(N)c23)n1` [Compound I-220], the IC50 against FLT3 is at least 1000 nM; against METTL3/METTL14, 100 to 1000 nM; at FLT3-ITD, at least 1000 nM; against PRMT5-MEP50, under 10 nM.
Take `COCCn1ccc(-c2cn([C@@H]3O[C@H](C(=O)NC4CCN(C)CC4)[C@@H](O)[C@H]3O)c3ncnc(N)c23)n1` [Compound I-57, (2S,3S,4R,5R)-5-(4-amino-5-(1-(2-methoxyethyl)-1H-pyrazol-3-yl)-7H-pyrrolo[2,3-d]pyrimidin-7-yl)-3,4-dihydroxy-N-(1-methylpiperidin-4-yl)tetrahydrofuran-2-carboxamide]: the IC50 against FLT3 is at least 1000 nM; at METTL3/METTL14 it was 100 to 1000 nM; against FLT3-ITD, at least 1000 nM; against PRMT5-MEP50, 100 to 1000 nM.
Regarding `Cn1ccc(-c2cn([C@@H]3O[C@H](C(=O)NC4CCc5nc[nH]c5C4)[C@@H](O)[C@H]3O)c3ncnc(N)c23)n1` (some centres unmarked) [Compound I-194], the IC50 on FLT3 was at least 1000 nM; at METTL3/METTL14, 10 to 100 nM; against FLT3-ITD, at least 1000 nM; against PRMT5-MEP50, 100 to 1000 nM.
As for `CN1[C@@H]2CC[C@H]1C[C@@H](NC(=O)[C@H]1O[C@@H](n3cc(-c4ccn(C)n4)c4c(N)ncnc43)[C@H](O)[C@@H]1O)C2` [Compound I-187], the IC50 at FLT3 was at least 1000 nM; against METTL3/METTL14 it was 100 to 1000 nM; on FLT3-ITD it was at least 1000 nM; against PRMT5-MEP50, 10 to 100 nM.
With `CN1CCC(NC(=O)[C@H]2O[C@@H](n3cc(-c4ccn(C)n4)c4c(N)ncnc43)[C@H](O)[C@@H]2O)CC1=O` (some centres unmarked) [Compound I-186], the IC50 against FLT3, against METTL3/METTL14, against FLT3-ITD and on PRMT5-MEP50 was at least 1000 nM in each case.
On to `Cn1ccc(-c2cn([C@@H]3O[C@H](C(=O)N[C@H]4CCCNC4)[C@@H](O)[C@H]3O)c3ncnc(N)c23)n1` [Compound I-219], for which the IC50 against FLT3 is at least 1000 nM; against METTL3/METTL14, 100 to 1000 nM; against FLT3-ITD it was at least 1000 nM; against PRMT5-MEP50, 10 to 100 nM.

(Values after patent US20240051985A1, “METTL3 MODULATORS” (ACCENT THERAPEUTICS, INC., priority 2020, published 2024).)
